# Test results published in patent US9943506B2, “BCL6 inhibitors as anticancer agents” (Cornell University, priority 2013, dated 2018).
# Where two headings read alike, the source gives them in different places.
# Key:
# mice [1] = details: earlier work on 79-6; cited from earlier work
# PLZF-BTB = target: T1, PLZF-BTB (Homo sapiens, UniProt Q05516); details: earlier work on 79-6; cited from earlier work
# T1 construct: the repression activity of the HIC1, PLZF, or Kaiso BTB domains; expressed in transfected cells; host or cells: 293T
# T1 sequence (Q05516 34-96 limits assumed): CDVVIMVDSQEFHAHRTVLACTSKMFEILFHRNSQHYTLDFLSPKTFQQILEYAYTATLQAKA
# HIC1-BTB = target: T2, HIC1-BTB (Homo sapiens, UniProt Q14526); details: earlier work on 79-6; cited from earlier work
# T2 construct: expressed in transfected cells; host or cells: 293T
# T2 sequence (Q14526 47-110 limits assumed): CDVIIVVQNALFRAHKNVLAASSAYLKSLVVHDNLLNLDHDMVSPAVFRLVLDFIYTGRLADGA
# BCL6-BTB = BCL6-BTB (Homo sapiens, UniProt P41182); experiment: MicroScale Thermophoresis binding to BCL6-BTB; details: affinity to the BCL6-BTB domain
# Protocol: (§1) BCL6 is also required for normal development of germinal center (GC) B-cells.
# Recombinant BCL6-BTB was labeled using the RED-NHS Labeling kit (NanoTemper Technologies). […] The label:protein ratio was determined using photometry at 650 nm and Bradford reagent. […] The labeled BCL6-BTB was adjusted to 400 nM with PBS (Thermo) buffer supplemented with 0.05% Tween-80 (Fisher scientific). […] After 10 min incubation, approximately 4 μL of each solution was filled into Monolith NT Standard Treated Capillaries (NanoTemper Technologies GmbH). Thermophoresis was measured using a Monolith NT.115 instrument (NanoTemper Technologies GmbH) at an ambient temperature of 25° C. with 5 s/30 s/5 s laser off/on/off times, respectively. Instrument parameters were adjusted with 90% LED power and 40% MST power. Data of three independent experiments were analyzed (NT.Analysis software version 1.5.41, NanoTemper Technologies) using the signal from Thermophoresis.
# human DLBCL xenografts = details: mice; earlier work on 79-6; cited from earlier work
# Ly10 DLBCL cells = experiment: Growth inhibition of DLBCL cells, Ly10; format: cell-based
# Protocol: (§2) 50,000 cells per well were treated for 48 hours with different concentrations of the compounds in 96 well plates, using DMSO as a control. Then, viability was determined with Cell Titer Blue™ (Promega) and growth inhibition was calculated as the percentage of viable cells with respect to cells treated with DMSO alone. GI50 values were determined by dose-response curves.
# (§3) 293T cells were grown in Dulbecco's modified Eagles medium supplemented with 10% fetal bovine serum (FBS) (Gemini Bio-Products, Woodland, Calif.) and 1% penicillin-streptomycin. DLBCL cell lines OCI-Ly1, OCI-Ly1-B50, OCI-Ly7, OCI-Ly10 and OCI-Ly19 were grown in 80% Iscove's medium, 20% FBS and penicillin G/streptomycin. DLBCL cell lines Toledo, Farage, SU-DHL4, DOHH-2, SC-1, RCK8, TMD8, HBL-1, Ly3, Karpas 422 and SU-DHL6 were cultured in 90% RPMI medium, 10% FBS, 2 mM glutamine, 10 mM Hepes and penicillin G/streptomycin. All cell lines were cultured at 37° C. in a humidified atmosphere of 5% CO2.
# SUDHL6 DLBCL cells = experiment: Growth inhibition of DLBCL cells, SUDHL6; format: cell-based; details: Homo sapiens, SU-DHL-6
# Protocol: as §2, §3
# Ly1 DLBCL cells = experiment: Growth inhibition of DLBCL cells, Ly1; format: cell-based; details: Table 9; Bcl6 dependent; read-out: GI 50 Ly1
# Protocol: as §2, §3
# Ly4 DLBCL cells = experiment: Growth inhibition of DLBCL cells, Ly4; format: cell-based; details: Table 9; Bcl6 independent; read-out: GI 50 Ly4
# Protocol: as §2
# Toledo DLBCL cells = experiment: Growth inhibition of DLBCL cells, Toledo; format: cell-based; details: Homo sapiens
# Protocol: as §2, §3
# Karpas 422 DLBCL cells = experiment: Growth inhibition of DLBCL cells, Karpas 422; format: cell-based; details: Homo sapiens
# Protocol: as §2, §3
# WSU-DLCL2 DLBCL cells = experiment: Growth inhibition of DLBCL cells, WSU-DLCL2; format: cell-based; details: Homo sapiens, WSUDLCL2; Table 9; Bcl6 independent; read-out: GI 50 WSUDLCL2
# Protocol: as §2
# Ly3 DLBCL cells = experiment: Growth inhibition of DLBCL cells, Ly3; format: cell-based
# Protocol: as §2, §3
# Ly7 DLBCL cells = experiment: Growth inhibition of DLBCL cells, Ly7; format: cell-based
# Protocol: as §2, §3
# Ly1B50 DLBCL cells = experiment: Growth inhibition of DLBCL cells, Ly1B50; format: cell-based
# Protocol: as §2, §3
# [2] = test system: BCL6 dependent GCB DLBCLs; experiment: GCB DLBCL tumors in vivo
# Text: as §1
# [3] = Pharmacokinetics in vitro and in vivo
# [4] = test system: primary human ABC DLBCL samples; experiment: Primary human ABC DLBCL samples
# mice [5] = experiment: Toxicity of 1085 in mice; format: in vivo; details: C57BL/6 mice, daily IP 50 to 150 mg/kg over 7 days
# Protocol: […]. BCL6 is also required for normal development of germinal center (GC) B-cells. […]. Noteworthy, BCL6 dependent aggressive ABC DLBCLs were also sensitive to the in vitro and in vivo treatment with 1085, and even primary human ABC DLBCL samples were sensitive to the treatment with the new BCL6 inhibitor.
# […]. Five C57BL/6 mice were exposed to daily intraperitoneal (IP) administration of increasing doses of the compound ranging from 50 to 150 mg/kg over the course of 7 days, to a cumulative dose of 750 mg/kg, and another five mice were exposed to vehicle only. […] Brain, heart, lung, liver, kidney, bowel, spleen, and bone marrow tissues were examined. Complete peripheral blood counts, biochemistry and liver function tests were normal.
# [6] = test system: BCL6 dependent aggressive ABC DLBCLs; experiment: ABC DLBCL in vitro and in vivo treatment
# Text: as §1
# germinal center = experiment: Germinal center formation in immunized mice; details: 10 days, 100 mg/kg
# [7] = Stability in administration vehicle by NMR spectroscopy; format: physicochemical
# Protocol: First, the stability of the compound in the administration vehicle of 30% PEG-300, 5% Tween-80, and 65% dextrose 5%, was evaluated at room temperature over a period of up to 8 days by NMR spectroscopy.
# The toxic effects of 1085 on mice were then examined. Five C57BL/6 mice were exposed to daily intraperitoneal (IP) administration of increasing doses of the compound ranging from 50 to 150 mg/kg over the course of 7 days, to a cumulative dose of 750 mg/kg, and another five mice were exposed to vehicle only. […] Brain, heart, lung, liver, kidney, bowel, spleen, and bone marrow tissues were examined. Complete peripheral blood counts, biochemistry and liver function tests were normal.
# [8] = Table 2, BCL-6 dependent, 48 hours
# [9] = Table 2, BCL-6 independent, 48 hours
structure (smiles),measurement,setting,value
O=C(O)CC(C(=O)O)N1C(=O)/C(=C2/C(=O)Nc3ccc(Br)cc32)SC1=S (stereo not shown) [Compound 79-6],toxicity,mice [1],not toxic
same,inhibition of PLZF BTB domain,PLZF-BTB,not other BTB domains
same,inhibition of HIC1 BTB domain,HIC1-BTB,not other BTB domains
same,Kd,BCL6-BTB,~120 µM
same,effect on human DLBCL xenografts,human DLBCL xenografts,suppresses human DLBCL xenografts
C[C@@H](OC(=O)CN1C(=O)C(=O)c2cc(Cl)ccc21)c1ccccc1 [Compound 361],GI50,"Ly10 DLBCL cells; Table 9, Bcl6 dependent, read-out: GI 50 Ly10",166 µM
same,GI50,"SUDHL6 DLBCL cells; Table 9, Bcl6 dependent, read-out: GI 50 SUDHL6",7 µM
same,GI50,Ly1 DLBCL cells,24 µM
same,GI50,Ly4 DLBCL cells,98 µM
same,GI50,"Toledo DLBCL cells; Table 9, Bcl6 independent, read-out: GI 50 Toledo",39 µM
same,GI50,"Karpas 422 DLBCL cells; Table 9, Bcl6 independent, read-out: GI 50 K422",20 µM
same,GI50,WSU-DLCL2 DLBCL cells,41 µM
same,GI50,"Ly3 DLBCL cells; Table 9, Bcl6 dependent, read-out: GI 50 Ly3",56 µM
same,GI50,"Ly7 DLBCL cells; Table 9, Bcl6 dependent, read-out: GI 50 Ly7",26 µM
same,GI50,"Ly1B50 DLBCL cells; Table 9, Bcl6 independent, read-out: GI 50 Ly1B50",103 µM
"O=C(O)CCN1C(=O)/C(=C2/C(=O)Nc3ccc(Cl)cc32)SC1=S [Compound 1085, (Z)-3-(5-(5-Chloro-2-oxoindolin-3-ylidene)-4-oxo-2-thioxothiazolidin-3-yl)propanoic acid]",GI50,Ly10 DLBCL cells; [8],23.5 ± 0.2 µM
same,GI50,"SUDHL6 DLBCL cells; Table 2, BCL-6 dependent, 48 hours, read-out: GI50 SUDH6",14 ± 7 µM
same,tumors with tumor regression,[2],95%
same,pharmacokinetics,[3],favorable pharmacokinetics
same,GI50,Toledo DLBCL cells; [9],> 40 µM
same,sensitivity of primary human ABC DLBCL samples,[4],sensitive
same,GI50,"Karpas 422 DLBCL cells; Table 2, BCL-6 independent, 48 hours, read-out: GI50 Karpas 422",> 40 µM
same,"complete peripheral blood counts, biochemistry and liver function tests",mice [5],normal
same,toxic effects or other indicators of sickness,mice [5]; cumulative 750 mg/kg,No toxic effects
same,sensitivity of ABC DLBCLs to treatment,[6],sensitive
same,effect on germinal center,germinal center,inhibited the germinal center
same,stability in solution,[7],very stable in solution
same,stability of the compound in the administration vehicle,"[7]; 30% PEG-300, 5% Tween-80, 65% dextrose 5%, room temperature, 8 days, NMR",No significant changes in the structure
same,GI50,Ly3 DLBCL cells; [8],> 40 µM
same,GI50,Ly7 DLBCL cells; [8],23 ± 9 µM
same,GI50,Ly1B50 DLBCL cells; [9],> 40 µM
